Assays:
Experiment in all cases: -log10 GI50 (growth inhibition 50%) (-log10(M)); higher = more potent growth inhibition
[1] = system: CAL851
Summary of the method: (§1)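 The reported figure is the negative logarithm of GI50, defined as the molar concentration that produces the set level of growth inhibition. The logarithm is base 10. It comes from a Gompertz curve fitted by nonlinear least squares to 72-hour luminescence data from breast cancer cell lines given nine doses in 1:5 serial dilution, in triplicate, with a time-zero plate as reference. A < qualifier marks values equal to the top dose.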

[2] = system: EFM192B
Summary of the method: as §1

[3] = system: CAL148
Summary of the method: as §1

[4] = system: EFM192C
Summary of the method: as §1

[5] = system: EFM19
Summary of the method: as §1

[6] = system: JIMT1
Summary of the method: as §1

[7] = system: CAL120
Summary of the method: as §1

[8] = system: EFM192A
Summary of the method: as §1

[9] = system: SUM44PE
Summary of the method: as §1

[10] = system: 21PT
Summary of the method: as §1

Row | SMILES | -log10 GI50 [1] | -log10 GI50 [2] | -log10 GI50 [3] | -log10 GI50 [4] | -log10 GI50 [5] | -log10 GI50 [6] | -log10 GI50 [7] | -log10 GI50 [8] | -log10 GI50 [9] | -log10 GI50 [10]
1 | CC(=O)NCC(=O)N1[C@@H]2CC[C@H]1c1ccc(Nc3ncc(C(F)(F)F)c(NC4CCC4)n3)cc12 | 5.04 | 5.28 | 7.04 | 5.07 | 5.63 | 5.41 | 5.76 | 5.09 | – | –
2 | CC(=O)Nc1cccc(-n2c(=O)n(C3CC3)c(=O)c3c(Nc4ccc(I)cc4F)n(C)c(=O)c(C)c32)c1 | – | – | – | – | – | – | – | – | 6.91 | –
3 | CCC[C@H](N[C@H]1CCc2cc(F)cc(F)c2C1)C(=O)Nc1cn(C(C)(C)CNCC(C)(C)C)cn1 | 5.29 | 4.8 | 4.91 | 4.46 | 4.79 | 4.7 | 4.76 | 4.58 | – | –
4 | COc1ccc(-c2cc3c(C)nc(N)nc3n([C@H]3CC[C@H](OCCO)CC3)c2=O)cn1 | 7.4 | 6.73 | 6.35 | – | 7.42 | 6.46 | 6.05 | 6.92 | – | –
5 | Cn1ncc(Cl)c1-c1cc(C(=O)N[C@H](CN)Cc2ccc(F)c(F)c2)oc1Cl | 5.12 | 6.63 | 8.06 | – | 7.42 | 5.74 | 5.13 | 7.53 | – | 5.03
6 | C=CCNC1=C2C[C@@H](C)C[C@H](OC)[C@H](O)[C@@H](C)/C=C(\C)[C@H](OC(N)=O)[C@@H](OC)/C=C\C=C(/C)C(=O)NC(=CC1=O)C2=O [17-AAG] | – | – | – | – | – | – | – | – | 8.84 | –
7 | CO[C@H]1C[C@@H]2CC[C@@H](C)[C@@](O)(O2)C(=O)C(=O)N2CCCC[C@H]2C(=O)O[C@H]([C@H](C)C[C@@H]2CC[C@@H](O)[C@H](OC)C2)CC(=O)[C@H](C)/C=C(\C)[C@@H](O)[C@@H](OC)C(=O)[C@H](C)C[C@H](C)/C=C/C=C/C=C/1C [Rapamycin] | – | – | – | – | – | – | – | – | 9.26 | –
8 | CC/C(=C(\c1ccccc1)c1ccc(OCCN(C)C)cc1)c1ccccc1 [Tamoxifen] | – | – | – | – | – | – | – | – | 7.03 | –
9 | CC[C@@]1(O)C(=O)OCc2c1cc1n(c2=O)Cc2cc3c(CN(C)C)c(O)ccc3nc2-1 [Topotecan] | – | – | – | – | – | – | – | – | 6.43 | –

— the supplement of paper PMC3937590
